Measured values: paper PMC4818757, “Small molecule inhibitors of the Dishevelled‐CXXC5 interaction are new drug candidates for bone anabolic osteoporosis therapy” (EMBO Molecular Medicine, 2016)

Legend:
[1] = Metabolic stability, rat liver microsomes; type: in vitro ADME
MC3T3E1 cells = assay: Relative ALP activity in MC3T3E1 cells; type: cell-based, murine; conditions: differentiation media, 10 M of each compound, 4 days
Text: Railo et Rev: [NT] al, 2009 Fos-like antigen 1 […] et al, 2003 WNT1 inducible [NT] Railo et signaling pathway Rev: [NT] al, 2009 protein 1 (Wis p1) Activating […] transcription factor Rev: […], 4 (Atf 4) 2007 Cyclin-dependent [NT] Donovan TGFβ kinase inhibitor 1B Rev: [NT] et al, 2002 (Cdkn1b) […] membrane Rev: […], protein 1 (Emp1) 2007 8

[2] = Metabolic stability, human hepatocytes; type: in vitro ADME
Dvl PDZ domain = target: T1, Dvl PDZ domain (Homo sapiens, UniProt O14640); assay: NMR titration (1H-15N-HSQC); type: binding
T1 construct: plasmid DNA encoding Dvl-1247- 341 (the Dvl PDZ domain); His-tag (TEV-cleavable) (cleaved yes); made in house; host or cells: E. coli BL21 (DE3)
T1 sequence (O14640 247-341 limits assumed): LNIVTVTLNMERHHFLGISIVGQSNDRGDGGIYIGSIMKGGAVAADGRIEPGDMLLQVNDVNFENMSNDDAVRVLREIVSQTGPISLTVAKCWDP
Protocol: For NMR titration, ^1H‐^15N‐heteronuclear single‐quantum coherence spectroscopy (HSQC) was performed using various molar ratios of ^15N‐labeled Dvl PDZ domain relative to the DBM peptide, KY‐02061, or KY‐02327. For the Dvl PDZ domain and DBM titration, the molar ratios of ^15N‐labeled Dvl PDZ domain to peptide ligand were 1:5, 1:10, 1:15, 1:20, and 1:25. For the Dvl PDZ domain and KY‐02061 titration, the molar ratios were 1:10, 1:20, 1:40, 1:60, and 1:80. For the Dvl PDZ domain and KY‐02327 titration, the molar ratios were 1:0, 1:5, 1:10, and 1:20. All spectra were processed using XWINNMR (Bruker Biospin Corp., Billerica, MA) and NMRpipe/NMRDraw software (Delaglio et al, 1995). Using the Sparky program, all residues in each spectrum were completely assigned, and the chemical shift perturbations were calculated using the equation ΔδAV = ((Δδ1H)^2 + (Δδ15N/5)^2)^1/2, where ΔδAV, Δδ1H, and Δδ15N are the average, proton, and ^15N chemical shift changes, respectively. The residues showing ΔδAV > 0.05 were selected as residues participating in the interaction.
Dvl PDZ domain purification
E. coli strain BL21 (DE3) was transformed with plasmid DNA encoding Dvl-1247-341 (the Dvl PDZ domain), and the cells were grown in M9 minimal medium containing 15N isotope for 17 hours at 21°C and after then 1 mM isopropyl-1-thio-β -D-thiogalactopyranoside was treated. […]

metabolic stability (in words) [1] | Metabolic Stability (%) Human [2] [%] | metabolic stability (in words) [2] | Structure (SMILES) | Metabolic Stability (%) Rat [1] [%] | Relative ALP activity (%) (MC3T3E1 cells) | residues of Dvl PDZ domain perturbed (chemical shift change > 0.05) (Dvl PDZ domain) | stability, fold more stable than KY‐02061 [1] [fold] | stability, fold more stable than KY‐02061 [2] [fold]
poor metabolic stability | 25.2 ± 3 | poor metabolic stability | CCOC(=O)Cn1c(C(=O)OCC)cc2cc(OS(=O)(=O)c3ccc(C)cc3)ccc21 [KY‐02061] | 5.1 ± 2.4 | 173 | one residue in βB (S265) and three residues in αB (L321, R322, and V325) were perturbed |  | 
 |  |  | CCOC(=O)c1cc2cc(O)ccc2n1CC(=O)NCCN1CCCCC1 [KY‐02327] | 11.9 | 227 | one residue in βA (I250) and three residues in αB (V318, R322, and V325) of Dvl PDZ were perturbed | 2.3 | 1.3
